For eight compounds, IC50 results are on record in ChEMBL document CHEMBL1130192, “Synthesis and antiviral activity of C2 analogs of enviroxime: an exploration of the role of critical functionality” (J Med Chem, 1997).

SMILES strings stand for the structures. Values after ≈ are worked out from the molar mass of the structure shown.

In assay [1] the test system is HeLa. The assay is described as follows: Antiviral activity against Poliovirus (PV-1) in HeLa cells using CPE/XTT assay. It is filed as functional, cell-based. Particulars: Homo sapiens. On the technique in general: Formazan colour is commonly taken as a measure of viable cells.
In assay [2] the test system is HeLa. The assay is described as follows: Antiviral activity against Rhinovirus (RV-14) in HeLa cells using CPE/XTT assay. It is filed as functional, cell-based. The following applies: Homo sapiens.
Assay [3] concerns HeLa. The assay is described as follows: Antiviral activity against Rhinovirus (RV-16) in HeLa cells using CPE/XTT assay. The following applies: Homo sapiens. It is filed as functional, cell-based.
The test system of assay [4] is HeLa. The assay is described as follows: Antiviral activity against Rhinovirus (RV-2) in HeLa cells using CPE/XTT assay. The assay is classed as functional, cell-based. Particulars: Homo sapiens.
Assay [5] deals with HeLa. In words: Antiviral activity against Coxsackievirus (CoxA21) in HeLa cells using CPE/XTT assay. Particulars: Homo sapiens. It is filed as functional, cell-based.
Assay [6] has as its system HeLa. In words: Antiviral activity against Rhinovirus (RV-2) in HeLa cells using CPE/XTT assay in HeLa cells using CPE/XTT assay. It is filed as functional, cell-based. The following applies: Homo sapiens.
For assay [7], the system named is BSC-1. The assay is described as follows: Antiviral activity against Poliovirus (PV-1) using plaque reduction assay in BSC1 cells. It is filed as functional, cell-based, Cercopithecidae. Particulars: Chlorocebus aethiops. For orientation: In a plaque reduction assay, fewer plaques than in the control indicate reduced infectivity or spread.
For assay [8], the system named is BSC-1. The assay is described as follows: Antiviral activity against Poliovirus (PV-1) using plaque reduction assay using BSC1 cells. The assay is classed as functional, cell-based, Cercopithecidae. The following applies: Chlorocebus aethiops.
Assay [9] relates to HeLa. The assay is described as follows: Antiviral activity against Coxsackie virus (CoxA21) in HeLa cells using CPE/XTT assay. It is filed as functional, cell-based. The following applies: Homo sapiens.

For orientation: IC50 means the concentration that gives 50% inhibition. The low end stands for greater potency, the high end for weaker potency.

For the compound `Cc1nc2ccc(/C(=N/O)c3ccccc3)cc2n1S(=O)(=O)C(C)C`, the IC50 worked out at 0.23 mg/L (≈ 0.643 µM) in assay [1]; 0.34 mg/L (≈ 0.951 µM) in assay [2]; 0.18 mg/L (≈ 0.504 µM) in [3]; 0.24 mg/L (≈ 0.671 µM) in [4]; 0.05 mg/L (≈ 0.14 µM) in assay [5].
As for `CC(C)S(=O)(=O)n1c(N(C)C)nc2ccc(/C(=N/O)c3ccccc3)cc21`, the IC50 in [1] worked out at 4.55 mg/L (≈ 11.8 µM); in assay [2], 49 mg/L (≈ 127 µM); in assay [3] it was 0.64 mg/L (≈ 1.66 µM); in assay [4] it was 30.3 mg/L (≈ 78.4 µM); in assay [5], 2.19 mg/L (≈ 5.67 µM).
With `CC(C)S(=O)(=O)n1cnc2ccc(/C(=N/O)c3ccccc3)cc21`, the IC50 in assay [1] is 0.57 mg/L (≈ 1.66 µM); in assay [2], 0.53 mg/L (≈ 1.54 µM); in [3], 0.16 mg/L (≈ 0.466 µM); in [5] it was 0.12 mg/L (≈ 0.349 µM); in assay [6], 0.19 mg/L (≈ 0.553 µM).
As to `COc1nc2ccc(/C(=N/O)c3ccccc3)cc2n1S(=O)(=O)C(C)C`, the half-inhibitory concentration (IC50) was 0.57 mg/L (≈ 1.53 µM) in [1]; 0.48 mg/L (≈ 1.29 µM) in assay [2]; 0.18 mg/L (≈ 0.482 µM) in assay [3]; 0.54 mg/L (≈ 1.45 µM) in assay [4]; 0.17 mg/L (≈ 0.455 µM) in assay [5].
On to `CSc1nc2ccc(/C(=N/O)c3ccccc3)cc2n1S(=O)(=O)C(C)C`, for which the half-inhibitory concentration (IC50) was determined as 0.59 mg/L (≈ 1.51 µM) in assay [1]; 0.76 mg/L (≈ 1.95 µM) in assay [2]; 0.18 mg/L (≈ 0.462 µM) in [3]; 0.69 mg/L (≈ 1.77 µM) in assay [4]; 0.18 mg/L (≈ 0.462 µM) in [5].
`CC(C)n1c(N)nc2ccc(/C(=N/O)c3ccccc3)cc21`: 0.09 mg/L (≈ 0.306 µM) corresponded to half-maximal inhibition in assay [7] (IC50).
For the compound `CNc1nc2ccc(/C(=N/O)c3ccccc3)cc2n1S(=O)(=O)C(C)C`, the IC50 worked out at 6.16 mg/L (≈ 16.5 µM) in assay [1]; 24.4 mg/L (≈ 65.5 µM) in assay [2]; 1.49 mg/L (≈ 4 µM) in assay [3]; 54.8 mg/L (≈ 147 µM) in assay [4]; 7.11 mg/L (≈ 19.1 µM) in assay [5].
As to `CC(C)S(=O)(=O)n1c(N)nc2ccc(/C(=N/O)c3ccccc3)cc21` [ENVIROXIME], the IC50 was found to be 0.02 mg/L (≈ 0.0558 µM) in assay [8]; 0.06 mg/L (≈ 0.167 µM) in [1]; 0.04 mg/L (≈ 0.112 µM) in [2]; 0.04 mg/L (≈ 0.112 µM) in assay [3]; 0.07 mg/L (≈ 0.195 µM) in assay [4]; 0.05 mg/L (≈ 0.139 µM) in assay [9].
